Experimental data published in patent EP0618917B1, “1'-AMINO-2- (BENZOTHIAZOLYL)METHYL]SPIRO ISOQUINOLINE-4(1H),3'-PYRROLIDINE]-1,2',3,5'(2H)-TETRONES AND ANALOGS THEREOF USEFUL AS ALDOSE REDUCTASE INHIBITORS” (AMERICAN HOME PRODUCTS CORPORATION, priority 1991, dated 1993).

System: aldose reductase
Assay: Galactitol (dulcitol) accumulation in galactosemic rats, in vivo
Conditions: percentage decrease of dulcitol accumulation vs untreated galactose-fed rats, four days; for % Lowering Galactitol Accumulation In Vivo %(D): diaphragm; for % Lowering Galactitol Accumulation In Vivo %(L): lens
Excerpt: The aldose reductase inhibiting property of the compounds of this invention and the utilization of the compounds in preventing, diminishing and alleviating diabetic complications are demonstrable in experiments using galactosemic rats, see Dvornik et al., Science, 182, 1146 (1973). Such experiments are exemplified hereinbelow after the listing of the following general comments pertaining to these experiments: • (a) Four or more groups of six male rats, 50-70 g, Sprague-Dawley strain, were used. The first group, the control group, was fed a mixture of laboratory chow (rodent Laboratory Chow, Purina) and glucose at 20% (w/w %) concentration. An untreated galactosemic group was fed a similar diet in which galactose was substituted for glucose. The third group was fed a diet prepared by mixing a given amount of the test compound with the galactose containing diet The concentration of galactose in the diet of the treated groups was the same as that for the untreated galactosemic group. • (b) After four days, the animals were killed by euthanization. Both the lens and sciatic nerve were removed, weighed and stored frozen for polyol determination. • (c) The polyol determination was performed by a modification of the procedure of M. Kraml and L. Cosyns, Clin. Biochem., 2, 373 (1969). Only two minor reagent changes were made: (a) the rinsing mixture was an aqueous 5% (w/v) trichloroacetic acid solution and (b) the stock solution was prepared by dissolving 25 mg of dulcitol in 100 mL of an aqueous trichloroacetic acid solution. [N.B.: For each experiment the average value found in the tissue from rats fed the glucose diet was subtracted from the individual values found in the corresponding tissue in galactose-fed rats to obtain the amount of polyol accumulated.] The aldose reductase inhibiting effects of the compounds of formula (I) were also tested by employing an in vitro testing procedure similar to that described by S. Hayman and J.H. Kinoshita, J. Biol. Chem., 240, 877 (1965). In the present case the procedure of Hayman and Kinoshita was modified in that the final chromatography step was omitted in the preparation of the enzyme from bovine lens.
The figures under L, N, and D represent the percentage decrease of dulcitol accumulation in the tissues of the lens, sciatic nerve, and diaphragm, respectively for treated rats as compared to untreated rats.

SMILES | % Lowering Galactitol Accumulation In Vivo %(D) (Table 2, 50 mg/kg/day in diet) [%] | % Lowering Galactitol Accumulation In Vivo %(L) (Table 2, 50 mg/kg/day in diet) [%] | % Lowering Galactitol Accumulation In Vivo %(D) (dose 50 mg/kg/day in diet) [%] | % Lowering Galactitol Accumulation In Vivo %(L) (dose 50 mg/kg/day in diet) [%]
O=C1c2ccccc2C2(CC(=O)N(N=C3CCCC3)C2=O)C(=O)N1Cc1nc2cc(C(F)(F)F)ccc2s1 (stereo not drawn) [1'-(Cyclopentylideneamino)-2-[[5-(trifluoromethyl)-2-benzothiazolyl]methyl]spiro[isoquinoline-4(1H),3'pyrrolidine]-1,2',3,5'(2H)-tetrone] | 95 | 28 |  | 
CC(C)=NN1C(=O)CC2(C(=O)N(Cc3nc4cc(C(F)(F)F)ccc4s3)C(=O)c3ccccc32)C1=O (stereo not drawn) [1'-[(1-Methylethylidene)amino]-2-[[5-(trifluoromethyl)-2-benzothiazolyl]methyl]spiro[isoquinoline]-1,2',3,5'(2H)-tetrone] | 97 | 37 |  | 
O=C1c2ccccc2C2(CC(=O)N(N=C3CCOCC3)C2=O)C(=O)N1Cc1nc2cc(C(F)(F)F)ccc2s1 (stereo not drawn) [1'-[(Tetrahydro-4H-pyran-4-ylidene)amino]-2-[[5-(trifluoromethyl)-2-benzothiazolyl]methyl]spiro[isoquinoline-4(1H),3'-pyrrolidine]-1,2',3,5'(2H)-tetrone] | 96 | 41 |  | 
NN1C(=O)CC2(C1=O)C(=O)N(Cc1nc3cc(C(F)(F)F)ccc3s1)C(=O)c1ccc(F)cc12 (stereo not drawn) [R^1=F, R^4=H, R^5=H] |  |  | 97 | 31
CC(=O)NN1C(=O)CC2(C(=O)N(Cc3nc4cc(C(F)(F)F)ccc4s3)C(=O)c3ccccc32)C1=O (stereo not drawn) [R^1=H, R^4=H, R^5=COCH3, N-[2-[[5-(trifluoromethyl)-2-benzothiazolyl]methyl]-2,3-dihydro-1,2',3,5'-tetraoxospiro[isoquinoline-4(1H),3'-pyrrolidine]-1'-yl] acetamide] |  |  | 97 | 40
NN1C(=O)CC2(C1=O)C(=O)N(Cc1nc3cc(C(F)(F)F)ccc3s1)C(=O)c1ccccc12 (stereo not drawn) [R^1=H, R^4=H, R^5=H, 1'-Amino-2-[[5-(trifluoromethyl)-2-benzothiazolyl]methyl]spiro[isoquinoline-4(1H),3'-pyrrolidine]-1,2',3,5'(2H)-tetrone] |  |  | 96 | 61
